# According to patent US20010039287A1, “AROMATIC SULFONE HYDROXAMIC ACID METALLOPROTEASE INHIBITOR” (priority 1997, published 2001):
# Counter-ions that a name gives are not always drawn. Like-named read-outs stand apart in the source and are kept apart here.
# How the values were obtained:
# Assay in all cases: biochemical
# [1] = biological target: recombinant human MMP-13 (Homo sapiens, UniProt P45452); conditions: read-out: MMP-13 IC50
# [2] = biological target: T1, recombinant human MMP-1 (Homo sapiens, UniProt P03956); conditions: read-out: MMP-1 IC50
# T1 construct: made in house; host or cells: transfected HT-1080 cells (provided by Dr. Harold Welgus, Washington University)
# T1 sequence (P03956 100-469): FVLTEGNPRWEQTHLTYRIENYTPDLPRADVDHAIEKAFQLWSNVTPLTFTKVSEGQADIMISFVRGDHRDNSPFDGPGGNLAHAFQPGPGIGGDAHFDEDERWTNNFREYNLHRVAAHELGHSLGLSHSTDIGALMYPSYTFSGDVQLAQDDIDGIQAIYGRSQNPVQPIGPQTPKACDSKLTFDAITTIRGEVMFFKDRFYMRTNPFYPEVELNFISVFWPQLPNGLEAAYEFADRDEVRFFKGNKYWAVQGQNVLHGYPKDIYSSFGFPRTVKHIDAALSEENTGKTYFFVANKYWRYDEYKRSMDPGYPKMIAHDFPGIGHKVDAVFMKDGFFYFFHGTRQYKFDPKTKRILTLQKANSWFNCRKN
# [3] = biological target: T2, recombinant human MMP-2 (Homo sapiens, UniProt P08253); conditions: read-out: MMP-2 IC50
# T2 sequence (P08253 110-660): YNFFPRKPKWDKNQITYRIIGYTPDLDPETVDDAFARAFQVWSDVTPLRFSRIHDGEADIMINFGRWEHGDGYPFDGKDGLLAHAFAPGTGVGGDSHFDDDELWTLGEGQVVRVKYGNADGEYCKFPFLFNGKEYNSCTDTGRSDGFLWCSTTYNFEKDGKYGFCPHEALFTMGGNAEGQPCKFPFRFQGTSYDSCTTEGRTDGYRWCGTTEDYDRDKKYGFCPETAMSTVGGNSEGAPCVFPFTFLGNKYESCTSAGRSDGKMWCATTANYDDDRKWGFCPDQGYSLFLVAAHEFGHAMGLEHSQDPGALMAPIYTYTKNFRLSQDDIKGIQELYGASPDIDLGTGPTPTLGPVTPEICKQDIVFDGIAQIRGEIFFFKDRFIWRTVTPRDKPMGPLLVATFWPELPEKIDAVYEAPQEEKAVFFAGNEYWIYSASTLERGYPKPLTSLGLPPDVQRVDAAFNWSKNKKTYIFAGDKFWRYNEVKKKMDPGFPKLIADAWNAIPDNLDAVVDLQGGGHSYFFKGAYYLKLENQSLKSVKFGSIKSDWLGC
Compound,IC50 ([3]; Inhibition Table B) [nM],IC50 ([1]; Inhibition Table B) [nM],IC50 ([2]; Inhibition Table B) [µM],also measured
O=C(Nc1ccc(S(=O)(=O)C2(C(=O)NO)CCNCC2)cc1)c1ccccc1 [Example 8],,,,IC50 ([1]; Inhibition Table A): 24.1 nM; IC50 ([2]; Inhibition Table A): > 10 µM
"Cc1cccc(Oc2ccc(S(=O)(=O)C3(C(=O)NO)CCOCC3)cc2)n1 [Example 98, Tetrahydro-N-hydroxy-4-[[4-[(6-methyl-2—pyridinyl)oxy]phenyl]-sulfonyl]-2H-pyran-4-carboxamide]",37,23.4,> 10,
"O=C(NO)C1(S(=O)(=O)c2ccc(Oc3ccc(F)c(Cl)c3)cc2)CCNCC1 [Example 84, 4-[[4-(3-chloro-4-fluorophenoxy)phenyl]sulfonyl]-N-hydroxy-4-piperidine Carboxamide, Monohydrochloride]",1.8,2.5,8,
O=C(NCC(F)(F)F)C1CCN(c2ccc(S(=O)(=O)C3(C(=O)NO)CCOCC3)cc2)CC1 [Example 180],128,4,5,
C#CCN1CCC(C(=O)NO)(S(=O)(=O)c2ccc(Oc3ccc(-n4ccnc4)cc3)cc2)CC1 [Example 23],,,,IC50 ([3]; Inhibition Table A): < 0.1 nM; IC50 ([1]; Inhibition Table A): 0.2 nM; IC50 ([2]; Inhibition Table A): 2.28 µM
"O=C(NO)C1(S(=O)(=O)c2ccc(OC3CCNCC3)cc2)CCOCC1 [Example 67, tetrahydro-N-hydroxy-4-[[4-(4-piperidinyloxy)phenyllsulfonyl]-2H-pyran-4-carboxamide, Monohydrochloride]",239,268,1.6,
"CC(C)NC(=O)N1CCC(C(=O)NO)(S(=O)(=O)c2ccc(Oc3ccc(Cl)cc3)cc2)CC1 [Example 90, 4-[[4-(4-chlorophenoxy)-phenyl]sulfonyl]-N^4-hydroxy-N^1-(1-methylethyl)-1,4-piperidine Dicarboxamide]",0.1,0.1,1.2,
CC1(C)OCC(C(=O)NO)(S(=O)(=O)c2ccc(Oc3ccccc3)cc2)CO1 [Example 48],0.2,0.25,0.21,
O=C(C1CCCCC1)N1CCN(c2ccc(S(=O)(=O)C3(C(=O)NO)CCOCC3)cc2)CC1 [Example 200],24,17.5,> 10,
O=C(NO)C1(S(=O)(=O)c2ccc(Sc3ccc(Cl)cc3)cc2)CCOCC1 [Example 25],,,,IC50 ([3]; Inhibition Table A): 2.6 nM; IC50 ([1]; Inhibition Table A): 3 nM; IC50 ([2]; Inhibition Table A): > 10 µM
"O=C(NO)C1(S(=O)(=O)c2ccc(Oc3cc(F)c(F)cc3F)cc2)CCOCC1 [Example 58, Tetrahydro-N-hydroxy-4-[[4-(2,4,5-trifluorophenoxy)phenyl]-sulfonyl]-2H-pyran-4-carboxamide]",83,30,> 10,
"O=C(NOC1CCCCO1)C1(S(=O)(=O)c2ccc(F)cc2)CCOCC1 (centres unmarked) [Example 55, 4-[(4-fluorophenyl)-sulfonyl]tetrahydro-N-[(tetrahydro-2H-pyran-2-yl)oxy]-2H-pyran-4-carboxamide]",0.1,0.3,1.2,
"O=C(NO)C1(S(=O)(=O)c2ccc(Oc3ccc(F)c(Cl)c3)cc2)CCOCC1 [Example 108, 4-[[4-(3-chloro-4-fluorophenoxy)phenyl]sulfonyl]-tetrahydro-N-hydroxy-2H-pyran-4-carboxamide]",0.4,0.4,2,
"CC(=O)N1CCC(Oc2ccc(S(=O)(=O)C3(C(=O)NO)CCOCC3)cc2)CC1 [Example 107, 4-[[4-[(1-acetyl-4-piperidinyl)oxy]phenyl]-sulfonyl]tetrahydro-N-hydroxy-2H-pyran-4-carboxamide]",12.1,6,> 10,
"C#CCN1CCC(C(N)=O)(S(=O)(=O)c2ccc(Sc3ccccc3)cc2)CC1 [Example 445, 4-[(4-phenylthiophenyl)sulfonyl]-1-(2—propynyl)-4-piperidinecarboxamide]",,,> 10,
"COC(=O)CCc1ccc(Oc2ccc(S(=O)(=O)C3(C(=O)NO)CCOCC3)cc2)cc1 [Example 102, methyl 4-[4-[(tetrahydro-4-[(hydroxyamino)carbonyl]-2H-pyran-4-yl]sulfonyl]-phenoxy]benzenepropanoate]",< 0.1,0.2,2,
"C#CCN1CCC(C(=O)NO)(S(=O)(=O)c2ccc(Oc3cccc(C)c3)cc2)CC1 [Example 41, N-hydroxy-4-[[4-(3-methylphenoxy)phenyl]sulfonyl]-1-(2-propynyl)-4-piperidinecarboxamide, Monohydrochloride]",0.15,0.2,1.2,
O=C(C1CCCN(c2ccc(S(=O)(=O)C3(C(=O)NO)CCOCC3)cc2)C1)N1CCOCC1 (centres unmarked) [Example 140],1000,,,
"Cc1ccc(Oc2ccc(S(=O)(=O)C3(C(=O)NO)CCOCC3)cc2)cn1 [Example 97, Tetrahydro-N-hydroxy-4-[[4-[(6-methyl-3-pyridinyl)oxy]phenyl]-sulfonyl]-2H-pyran-4-carboxamide, Monohydrochloride]",8.2,16.7,4,

Compound,IC50 ([3]; Inhibition Table B) [nM],IC50 ([1]; Inhibition Table B) [nM],IC50 ([2]; Inhibition Table B) [µM],also measured
"C=CCN1CCC(C(=O)NO)(S(=O)(=O)c2ccc(Oc3ccc(Cl)c(C)c3)cc2)CC1 [Example 82, 4-[[4-(4-chloro-3-methylphenoxy)phenyljsulfonyl]-N-hydroxy-1-(2-propenyl)-4-piperidinecarboxamide, Monohydrochloride]",0.1,0.3,4,
"O=C(CS(=O)(=O)c1ccc(NC(=O)Nc2ccccc2)cc1)NO [Example 75, N—hydroxy-2-[[4-[[(phenylamino)carbonyl]amino]-phenyl]sulfonyl]acetamide]",60,900,> 10,
"CC(=O)N1CCC(C(=O)NO)(S(=O)(=O)c2ccc(Oc3ccc4c(c3)OCO4)cc2)CC1 [Example 37, 1-acetyl-4-[[4-(1,3-benzodioxol-5-yloxy)phenyl]sulfonyl]-N-hydroxy-4-piperidinecarboxamide, Monohydrochloride]",0.2,0.3,1,
O=C(NCc1ccncc1)C1CCN(c2ccc(S(=O)(=O)C3(C(=O)NO)CCOCC3)cc2)CC1 [Example 195],100,,10,
O=C(C1CCc2ccccc2C1)N1CCN(c2ccc(S(=O)(=O)C3(C(=O)NO)CCOCC3)cc2)CC1 (centres unmarked) [Example 201],22.4,13.6,> 10,
COc1ccc(Oc2ccc(S(=O)(=O)C3(C(=O)NO)CCOCC3)cc2)cc1 [Example 64],< 0.1,0.15,1.47,
O=Cc1cccc(-c2ccc(S(=O)(=O)C3(C(=O)NO)CCOCC3)cc2)c1 [Example 228],< 1,< 1,0.6,
COc1ccccc1N1CCN(c2ccc(S(=O)(=O)C3(C(=O)NO)CCOCC3)cc2)CC1 [Example 128],23.8,20,> 10,
CCCCNC(=O)C1CCN(c2ccc(S(=O)(=O)C3(C(=O)NO)CCOCC3)cc2)CC1 [Example 181],,,10,
O=C(NC1CCCCCC1)C1CCN(c2ccc(S(=O)(=O)C3(C(=O)NO)CCOCC3)cc2)CC1 [Example 194],,,10,
C[C@@H]1CN(C(=O)C2CCCN(c3ccc(S(=O)(=O)C4(C(=O)NO)CCOCC4)cc3)C2)C[C@H](C)O1 (some centres unmarked) [Example 169],,,10,
C[C@@H]1CN(C(=O)C2CCN(c3ccc(S(=O)(=O)C4(C(=O)NO)CCOCC4)cc3)CC2)C[C@H](C)O1 [Example 176],,,> 10,
"COCCN1CCC(C(N)=O)(S(=O)(=O)c2ccc(Oc3ccc(OC(F)(F)F)cc3)cc2)CC1 [Example 444, 1-(2-methoxyethyl)-4-[[4-[4-(trifluoromethoxy)phenoxy]phenyl]sulfonyl]-4-piperidinecarboxamide]",,,,IC50 [2]: > 10 µM
O=C(CS(=O)(=O)c1ccc(NC(=O)c2ccccc2)cc1)NO [Example 7],,,,IC50 ([3]; Inhibition Table A): 1.8 nM; IC50 ([2]; Inhibition Table A): > 10 µM
N[C@H]1CCN(C(=O)C2CCN(c3ccc(S(=O)(=O)C4(C(=O)NO)CCOCC4)cc3)CC2)C1 [Example 175],,,10,
O=C(C1CCCN(c2ccc(S(=O)(=O)C3(C(=O)NO)CCOCC3)cc2)C1)N1CCCC2CCCCC21 (centres unmarked) [Example 170],,,10,
CNC(=O)C1CCCN(c2ccc(S(=O)(=O)C3(C(=O)NO)CCOCC3)cc2)C1 (centres unmarked) [Example 139],1000,,,
O=C(C1CCN(c2ccc(S(=O)(=O)C3(C(=O)NO)CCOCC3)cc2)CC1)N1CCCC1 [Example 179],,100,,
